Residues, ends and D or L forms follow the SMILES beside them.
Columns and labels:
[1] = biological target: T1, FL_Reg1 (full-length human Regnase-1) phosphorylation by IKKβ (Homo sapiens, UniProt Q5D1E8); assay: Regnase-1 phosphorylation inhibition by compounds (AlphaScreen), IKKβ, full-length Regnase-1; format: biochemical; conditions: Table 14; phosphorylation by IKKβ; read-out: Phosphorylation inhibition FL_Reg1, 50% inhibition concentration (IKKβ)
T1 construct: made in house; host or cells: Expi293 cells
T1 sequence (Q5D1E8 1-599): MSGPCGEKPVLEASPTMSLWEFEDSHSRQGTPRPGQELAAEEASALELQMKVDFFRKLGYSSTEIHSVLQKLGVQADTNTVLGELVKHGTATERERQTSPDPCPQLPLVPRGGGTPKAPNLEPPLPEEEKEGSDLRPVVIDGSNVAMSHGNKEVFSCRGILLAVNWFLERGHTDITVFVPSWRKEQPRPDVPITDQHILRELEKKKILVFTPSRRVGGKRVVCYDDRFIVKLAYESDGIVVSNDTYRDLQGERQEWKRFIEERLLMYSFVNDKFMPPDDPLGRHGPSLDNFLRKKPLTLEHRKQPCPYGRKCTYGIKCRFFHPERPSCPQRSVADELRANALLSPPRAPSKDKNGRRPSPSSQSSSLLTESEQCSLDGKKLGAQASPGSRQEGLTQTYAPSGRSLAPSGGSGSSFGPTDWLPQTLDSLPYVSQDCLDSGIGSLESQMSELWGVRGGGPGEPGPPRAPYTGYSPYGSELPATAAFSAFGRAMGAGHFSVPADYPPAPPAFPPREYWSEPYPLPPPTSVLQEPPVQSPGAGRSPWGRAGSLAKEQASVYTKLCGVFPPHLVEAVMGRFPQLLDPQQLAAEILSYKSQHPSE
Source text: (§1) The full-length sequence of human Regnase-1 (UniProt ID: Q5D1E8) was used to prepare a construct having a FLAG tag on the N-terminal side and a recognition sequence for biotin ligase BirA on the C-terminal side (FL_Reg1) as a target protein. The above-mentioned Regnase-1 was expressed in mammalian Expi293 cells, purified with FLAG M2 agarose, and isolated by gel filtration chromatography. When biotinylation was required, methods from nonpatent documents (BMC biotechnology, 2008,8,41; and Protein Science, 1999,8,921-929) were used. […]
(§2) Using Kinase assay buffer III (manufactured by SignalChem) supplemented with 2 mM DTT, 100 μM sodium vanadate, and 2 mM manganese chloride, kinase (IKKβ (manufactured by SignalChem) or TBK1 (manufactured by SignalChem)) and Regnase-1 were reacted in the presence of 10 μM ATP at room temperature for 2 hours to perform a phosphorylation reaction.
(§3) Phosphorylated Regnase-1 was detected by the AlphaScreen system. After each of the above-mentioned phosphorylated Regnase-1 antibodies was added and reacted at room temperature for one hour, anti-FLAG AlphaLISA Acceptor Beads (manufactured by PerkinElmer) and Protein A AlphaScreen Donor Beads (manufactured by PerkinElmer) were added, and EnVision (manufactured by PerkinElmer) was used to measure the excited luminescence. As a result, phosphorylated Regnase-1 produced by the phosphorylation reaction by kinase was specifically detected, and signals were confirmed to be enhanced in a manner dependent on Regnase-1 and kinase concentrations (FIG. 24).
(§4) After mixing 2 nM of the above-mentioned Regnase-1 and the compound, phosphorylated Regnase-1 produced by the phosphorylation reaction was detected by the AlphaScreen system. As the results, the inhibition rate was calculated from the signals obtained when adding the compound at each concentration, by defining the signal obtained with Regnase-1 alone to be 100% inhibition rate, and the signal obtained when the same amount of solvent (DMSO) is added in place of the compound as 0% inhibition rate. The 50% inhibition concentration (μM) was calculated from the obtained dose response curve (Table 11).

[2] = biological target: T2, FL_Reg1 (full-length human Regnase-1) phosphorylation by TBK1 (Homo sapiens, UniProt Q5D1E8); assay: Regnase-1 phosphorylation inhibition by compounds (AlphaScreen), TBK1, full-length Regnase-1; format: biochemical; conditions: Table 13; phosphorylation by TBK1; read-out: Phosphorylation inhibition FL_Reg1, 50% inhibition concentration (TBK1)
T2 construct: made in house; host or cells: Expi293 cells
T2 sequence (Q5D1E8 1-599): T1 sequence (Q5D1E8 1-599)
Source text: as §1, §2, §3, §4

[3] = biological target: T3, Reg1_301-599 (amino acids 301-599 of human Regnase-1) phosphorylation by TBK1 (Homo sapiens, UniProt Q5D1E8); assay: Regnase-1 phosphorylation inhibition by compounds (AlphaScreen), TBK1, C-terminal Regnase-1; format: biochemical; conditions: Table 13, read-out: Phosphorylation inhibition Reg1_301-599, 50% inhibition concentration (TBK1)
T3 construct: made in house; host or cells: Expi293 cells
T3 sequence (Q5D1E8 301-599): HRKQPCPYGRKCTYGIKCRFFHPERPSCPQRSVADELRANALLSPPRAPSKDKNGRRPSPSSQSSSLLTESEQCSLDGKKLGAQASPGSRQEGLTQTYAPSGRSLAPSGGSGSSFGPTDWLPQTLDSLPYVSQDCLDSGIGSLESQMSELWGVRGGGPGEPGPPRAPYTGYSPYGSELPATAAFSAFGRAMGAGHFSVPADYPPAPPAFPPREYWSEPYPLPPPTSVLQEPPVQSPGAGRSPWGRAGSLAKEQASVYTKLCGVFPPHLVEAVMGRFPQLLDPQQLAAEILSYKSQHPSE
Procedure: (§5) Among the full-length human Regnase-1 sequence, the 1st to 546th amino acid sequence was prepared and made into a construct having a FLAG tag on the N-terminal side and a biotin ligase BirA recognition sequence on the C-terminal side (herein, a Regnase-1 lacking the C-terminal domain of Regnase-1 (amino acids 547 to 599 in the case of SEQ ID NO: 2) is referred to as “ΔCTD_Reg1”. “ΔCTD_Reg1” is different from “Regnase-1ΔCTD”, which is a C-terminal domain deletion variant resulting from a frameshift mutation caused by a 1 bp deletion at codon 517, as prepared in Example 13). In addition, the sequence from amino acids 301 to 599 of the full-length human Regnase-1 sequence was designated as C-terminal Regnase-1, and a construct having a FLAG tag on the N-terminal side and a recognition sequence for biotin ligase BirA on the C-terminal side was prepared (Reg1_301-599). The above-mentioned Regnase-1 was expressed in mammalian Expi293 cells, purified with FLAG M2 agarose, and isolated by gel filtration chromatography. When biotinylation was required, methods of nonpatent documents (BMC biotechnology, 2008,8,41; and Protein Science, 1999,8,921-929) were used.
as §2, §3, §4

[4] = biological target: T4, binding between TBK1 and full-length Regnase-1 (FL_Reg1) (Homo sapiens, UniProt Q5D1E8); assay: Inhibition of kinase-Regnase-1 binding by the compounds (AlphaScreen), TBK1; conditions: Table 13; binding between TBK1 and Regnase-1; read-out: Binding inhibition FL_Reg1, 50% inhibition concentration (TBK1)
T4 construct: made in house; host or cells: Expi293 cells
T4 sequence (Q5D1E8 1-599): T1 sequence (Q5D1E8 1-599)
Procedure: (§6) As a target protein, a construct having a FLAG tag on the N-terminal side and a recognition sequence for biotin ligase BirA on the C-terminal side of the full-length sequence of human Regnase-1 (UniProt ID: Q5D1E8) was prepared (FL_Reg1). The above-mentioned Regnase-1 was expressed in mammalian Expi293 cells, purified with FLAG M2 agarose, and isolated by gel filtration chromatography. When biotinylation was required, methods from nonpatent documents (BMC biotechnology, 2008,8,41; and Protein Science, 1999,8,921-929) were used.
(§7) After mixing 2.5 nM of the above-mentioned Regnase-1 and the compound, 2.5 nM of IKKβ or TBK1 was added and reacted at room temperature for two hours. Then, Anti FLAG AlphaLISA Acceptor Beads (manufactured by PerkinElmer) and Glutathione-coated AlphaScreen Donor Beads (manufactured by PerkinElmer) were added, and excited luminescence was measured using En Vision (manufactured by PerkinElmer). As the results, the inhibition rate from the signals obtained when adding the compound at each concentration were calculated, by defining the signal obtained with Regnase-1 alone to be 100% inhibition rate, and the signal obtained when the same amount of solvent (DMSO) is added in place of the compound as 0% inhibition rate. The 50% inhibition concentration (μM) was calculated from the obtained dose response curve (Table 12).

[5] = biological target: T5, Reg1_301-599 (amino acids 301-599 of human Regnase-1) phosphorylation by IKKβ (Homo sapiens, UniProt Q5D1E8); assay: Regnase-1 phosphorylation inhibition by compounds (AlphaScreen), IKKβ, C-terminal Regnase-1; format: biochemical; conditions: Table 14, read-out: Phosphorylation inhibition Reg1_301-599, 50% inhibition concentration (IKKβ)
T5 construct: made in house; host or cells: Expi293 cells
T5 sequence (Q5D1E8 301-599): T3 sequence (Q5D1E8 301-599)
Source text: The full-length sequence of human Regnase-1 (UniProt ID: Q5D1E8) was used to prepare a construct having a FLAG tag on the N-terminal side and a recognition sequence for biotin ligase BirA on the C-terminal side (FL_Reg1) as a target protein. The above-mentioned Regnase-1 was expressed in mammalian Expi293 cells, purified with FLAG M2 agarose, and isolated by gel filtration chromatography. When biotinylation was required, methods from nonpatent documents (BMC biotechnology, 2008,8,41; and Protein Science, 1999,8,921-929) were used.
as §5, §2, §3, §4

[6] = biological target: T6, binding between IKKβ and full-length Regnase-1 (FL_Reg1) (Homo sapiens, UniProt Q5D1E8); assay: Inhibition of kinase-Regnase-1 binding by the compounds (AlphaScreen), IKKβ; conditions: Table 14; binding between IKKβ and Regnase-1; read-out: Binding inhibition FL_Reg1, 50% inhibition concentration (IKKβ)
T6 construct: made in house; host or cells: Expi293 cells
T6 sequence (Q5D1E8 1-599): T1 sequence (Q5D1E8 1-599)
Procedure: as §6, §7

FL_Reg1 = biological target: T7, FL_Reg1 (Homo sapiens, UniProt Q5D1E8); assay: Binding of Regnase-1 and peptide compounds (affinity mass analysis, SEC then LC/MS); conditions: 1 μM FL_Reg1, final compound concentration 1 μM, 23° C. for one hour
T7 construct: made in house; host or cells: Expi293 cells
T7 sequence (Q5D1E8 1-599): T1 sequence (Q5D1E8 1-599)
Procedure: To a 96 PP plate (Greiner bio-one, 651201) coated with lipidure (Lipidure-CM5206) (NOF CORPORATION, 71S42000001), 2 μL of Tris-Buffer (25 mM Tris-NaOH pH 8.3, 300 mM NaCl, 1 mM DTT, 1 mM EDTA, 1% DMSO) was dispensed, and then 1 mM DMSO sample was added at 20 nL each with a LABCYTE ECHO (registered trademark) acoustic dispensing system. Furthermore, 18 μL of protein prepared at 1 μM FL_Reg1 in advance using Tris-Buffer was added (final compound concentration: 1 μM), and the mixture was incubated in the dark at 23° C. for one hour. Then, to a 96-well, 400 μL, Hydrophilic PVDF 0.45 μm, Long drip (Harvard, 74-5556), 100 μL of P-2, Fine (Bio-Rad, 1504114) which had been swollen in advance was added, and conditioning was performed by centrifuging several times at 2000× G for two minutes using the buffer. Next, 20 μL of the sample after incubation was added to the conditioned 96-well, 400 μL, Hydrophilic PVDF 0.45 μm, Long drip, and SEC treatment was performed by centrifugation at 2000×G for two minutes. To the liquid from SEC, 32 μL of acetonitrile (LC/MS grade, FUJIFILM Wako Pure Chemical Industries, Ltd.) supplemented with 0.1% formic acid (LC/MS grade, 067-04531, FUJIFILM Wako Pure Chemical Industries, Ltd.) was added, and this was centrifuged at 1800×G for five minutes, and the supernatant was used as an analysis sample for LC/MS measurement. Binding to Regnase-1 was detected for all of the peptide compounds, PP1 to PP25.

| Compound | IC50 [1] [µM] | IC50 [2] [µM] | IC50 [3] [µM] | IC50 [4] [µM] | IC50 [5] [µM] | IC50 [6] [µM] | AS-MS ratio(%) (FL_Reg1) |
| --- | --- | --- | --- | --- | --- | --- | --- |
| CC[C@H](C)[C@@H]1NC(=O)[C@H](Cc2c[nH]c3ccccc23)NC(=O)[C@H](CO)NC(=O)[C@H](Cc2c[nH]c3ccccc23)NC(=O)[C@H](C(C)C)NC(=O)CNC(=O)[C@H](Cc2ccccc2)NC(=O)[C@H](CCCNC(=N)N)NC(=O)[C@H](C)N(C)C(=O)C[C@@H](C(=O)N2CCCC2)NC(=O)[C@@H]2CCCN2C(=O)[C@H](Cc2ccc(O)cc2)NC1=O [PP14] (HELM PEPTIDE1{[meA].R.F.G.V.W.S.W.I.Y.P.D.[C1CCN([*:1])C1]}$PEPTIDE1,PEPTIDE1,1:R1-12:R3$$$V2.0) | 1.6 | 3.1 | 6.8 | 7.1 | 6.5 | 20.1 |  |
| CC(C)[C@@H]1NC(=O)[C@H](Cc2c[nH]c3ccccc23)NC(=O)[C@H](CCCCN)NC(=O)[C@H](Cc2c[nH]c3ccccc23)NC(=O)[C@H](CCC(N)=O)NC(=O)[C@H](CCCNC(=N)N)NC(=O)[C@H](Cc2ccccc2)NC(=O)[C@H](CCCNC(=N)N)NC(=O)[C@H](C)N(C)C(=O)C[C@@H](C(=O)N2CCCC2)NC(=O)[C@@H]2CCCN2C(=O)[C@H](Cc2ccc(O)cc2)NC1=O [PP13] (HELM PEPTIDE1{[meA].R.F.R.Q.W.K.W.V.Y.P.D.[C1CCN([*:1])C1]}$PEPTIDE1,PEPTIDE1,1:R1-12:R3$$$V2.0) | 3.6 | 8.4 |  | 13.8 |  | 16.9 | 0.1 |

From patent US20250018014A1, “METHOD FOR TREATING AND/OR PREVENTING REGNASE-1-RELATED DISEASE” (OSAKA UNIVERSITY, priority 2018, published 2025)
